Reference: US6340755B1, “5H-Pyrano[2,3-d: 6,5-d']dipyrimidine derivatives having an antibacterial, antiviral and immuno-modulating activity” (Natural Drug Sciences LLC, priority 2000, dated 2002)

What was measured:
[1] = test system: herpes simplex type I (VPG-I/Leningrad/248/88); assay: Activity on herpes simplex virus: cytopathic action of the virus on Vero cells; type: cell-based; settings: 36 hours; for number of cells in 100 fields (unchanged cells): cell control 12000
Procedure: The antiviral activity was studied relative to the virus herpes simplex type I (VPG-I/Leningrad/248/88) by a standard method. The virus was grown on a reinoculated Vero cell culture obtained from the cell culture bank of the Institute of Cytology of the Russian Academy of Sciences.
To cells grown on medium RPMI-1640 with 10% calf serum and placed in the wells of a 96-well plate, the virus was added to give a final concentration of 10 particles/ml and the claimed compounds dissolved in DMSO were added to give a final concentrations of 100, 10, and 1 mg/l. We used 5 individual wells for every concentration tested. The plate was incubated for 60 min at 38° C. in a CO2 incubator. After incubation the virus was removed and new medium was added that contained the claimed compounds in the test concentrations.
The results were evaluated according to the existence of a cytopathic action of the virus on the cells after 36 hours of incubation at 38° C. in the CO2 incubator.
The following controls were used in the experiment:
3. Control of antiviral activity of an antiviral preparation—acylcovir.
To access the cytopathic effect of the virus, we counted the number of unchanged cells in 100 fields formed by a specialized grid on the eyepiece of the inversion microscope.

[2] = test system: primary culture of human lymphocytes; assay: Interferon-inducing activity in primary culture of human lymphocytes (immunoenzyme IFN determination); type: cell-based; parameters: unit of the concentration uncertain; settings: 24 hours of incubation
Procedure: Interferon synthesis induction by the claimed preparations was conducted on a primary culture of human lymphocytes (the cells in the human body are the main producers of interferon). To obtain a culture of the lymphocytes we used fresh blood (12 hours after collection) from healthy […] (not from the second group).
The lymphocyte concentration was determined after staining with methyl blue and the number of cells in the Goryaev chamber was calculated. […] The final concentration of the lymphocytes in the induction mixture was 3·10^6 cells/ml. The following controls were processed in parallel with the test samples:
The control and the experimental samples were incubated for 24 hours at 37° C. Following incubation the samples were centrifuged at 2000 g to settle out the cellular elements and the INF-containing supernatant was taken from the samples and analyzed for INF content. The cell residue was resuspended in the same volume of nutrient medium, stained with a vital dye—trypan blue—and the number of cells in the Goryaev chamber was calculated (as described above) to determine the cytotoxic activity of the preparations.
For the quantitative determination of INF in the control and experimental samples we used the ProCon IF2 Plus immunoenzyme test system sold by TOO Proteinovyi Kontur. To determine the quantity of interferon s in the sample we used a solid-phase immunoenzyme method utilizing horseradish peroxidase as the enzyme indicator. The activity of the bound peroxidase was measured using an automated photometer at a wavelength of 450 nm for the microplanchets with a microprocessor. […] On the basis of the results obtained we plotted a calibration curve that allowed us to obtain data expressed in International Units (IU) from the microprocessor of the automated photometer. The results of the analysis are expressed in IU of activity of INF per ml in the given induction system containing 3·10^6 lymphocytes/ml. Every experimental and control point was studied in 4 parallel runs.
The results obtained were analyzed statistically using the t-test and the confidence interval at p=0.05 was calculated. Analysis of the convergence of the results of the parallel tests were performed.

C. trachomatis D323 = assay: Activity on Chlamydia trachomatis in McCoy and L929 cell cultures; type: cell-based; settings: 48 hours; for number of cells in 100 fields (unchanged cells): cell control 8000, infected cell control 6400
Procedure: The antimicrobial activity of the claimed compounds was studied on C. trachomatis […]-a standard strain from the collection of the Department of Microbiology of the Pavlov St.-Petersburg State University. This strain was isolated from a patient with […] urethritis. […] In the work reported here we used McCoy and L929 cell cultures obtained from the Institute of Cytology of the Russian Academy of Sciences. The cells were grown in flasks of neutral glass in RPMI-1640 medium with an addition of 10% fetal calf serum. The experiment was placed in glass (toxicity-free) flat-bottomed flasks and covered with glass. The cells were introduced into the medium in a final concentration of 1·10 cells/ml. […] The sample was centrifuged at 2400 g for 60 min at room temperature and incubated at 37° C. for 2 hours. […] A parallel series of samples was run using medium without the cycloheximide in order to avoid its influence on the test substances. The samples were incubated for 48 hours in a CO2 incubator. […] The results were evaluated from the detection of chlamydia cytoplasmatic inclusion by an immunoenzyme method (MicroTrac Chlamydia trachomatis Direct Specimen Test) and from chlamydia antigens using CylaMonoScreen (Russian-British Joint Venture, 66 Regent's Park Road, London NW 1 7SX).

non-linebred white mice = assay: Acute toxicity (LD50) in mice; type: in vivo; settings: mice 18-20 g; by mouth or intravenously; observation period 14 days
Procedure: (§1) Acute toxicity was determined on non-linebred white mice weighing 18-20 g. Emulsions of certain of the claimed compounds were prepared in a range of concentrations: 1500, 700, 500, 100, 20 and 5 μg/kg. Five animals were used to study each specific concentration of a compound. The preparation was administered once a day by mouth or intravenously. The observation period was 14 days On days 1, 8 and 15 the animals in every group were weighed. For a control we used animals who received the emulsion without the test compounds.
(§2) All animals, both that died in the course of the experiment and those that survived to the end of the experiment, were opened to allow macroscopic examination of internal organs.
(§3) In the course of the experiment no loss of weight was observed or any change in behavior or external appearance, nor was there any loss of life. Based on the results of the macroscopic examination of internal organs of the animals in the test and the control groups, no pathological findings were made (Table 7).

[3] = test system: herpes simplex type I (VPG-I/Leningrad/248/88); assay: Activity on herpes simplex virus: cytopathic action of the virus on Vero cells; type: cell-based; settings: 50 mg/l, 36 hours; for number of cells in 100 fields (unchanged cells): cell control 12000
[4] = Acute toxicity (LD50) in mice; type: in vivo; settings: non-linebred white, mouse, in vivo, iv; mice 18-20 g; by mouth or intravenously; observation period 14 days
Procedure: as §1, §2, §3

## Oc1nc(S)nc2c1C(c1ccc(Cl)cc1)c1c(O)nc(S)nc1O2 [VIII]
[1]; 10 mg/l
  percent protection of the cells against the virus compared to the cell culture control: 20%
  number of cells in 100 fields (unchanged cells): 2400
[1]; 100 mg/l
  percent protection of the cells against the virus compared to the cell culture control: 90%
  number of cells in 100 fields (unchanged cells): 10800
[2]; 1 (unit uncertain)
  Interferon-inducing activity of the drug; content of INF in induction mixture: 1.5 ± 1.0 IU/3 · 10^4 lymp/ml
[2]; 10 (unit uncertain)
  Interferon-inducing activity of the drug; content of INF in induction mixture: 23.2 ± 1.5 IU/3 · 10^4 lymp/ml
[2]; 100 (unit uncertain)
  Interferon-inducing activity of the drug; content of INF in induction mixture: 70.5 ± 2.5 IU/3 · 10^4 lymp/ml
C. trachomatis D323; 100 mg/l
  percent protection of the cells against infection: 60%
  number of cells in 100 fields (unchanged cells): 7360
non-linebred white mice
  LD50: 1800 mg/kg
[3]
  percent protection of the cells against the virus compared to the cell culture control: 50%
  number of cells in 100 fields (unchanged cells): 6000

## O=[N+]([O-])c1ccc(C2c3c(O)nc(O)nc3Oc3nc(O)nc(O)c32)cc1 [I, 2,4,6,8-Tetrahydroxy-5-(p-nitrophenyl)-5H-pyrano[2,3-d:6,5-d′]dipyrimidine]
[1]; 10 mg/l
  percent protection of the cells against the virus compared to the cell culture control: 60%
  number of cells in 100 fields (unchanged cells): 7200
[1]; 100 mg/l
  percent protection of the cells against the virus compared to the cell culture control: 80%
  number of cells in 100 fields (unchanged cells): 9600
[2]; 1 (unit uncertain)
  Interferon-inducing activity of the drug; content of INF in induction mixture: 8.0 ± 0.8 IU/3 · 10^4 lymp/ml
[2]; 10 (unit uncertain)
  Interferon-inducing activity of the drug; content of INF in induction mixture: 28.0 ± 1.5 IU/3 · 10^4 lymp/ml
[2]; 100 (unit uncertain)
  Interferon-inducing activity of the drug; content of INF in induction mixture: 80.0 ± 1.2 IU/3 · 10^4 lymp/ml
C. trachomatis D323; 30 mg/l
  percent protection of the cells against infection: 70%
  number of cells in 100 fields (unchanged cells): 7520
C. trachomatis D323; 100 mg/l
  percent protection of the cells against infection: 80%
  number of cells in 100 fields (unchanged cells): 7640
[4]
  LD50 at 14 days: 1600 mg/kg
[3]
  percent protection of the cells against the virus compared to the cell culture control: 70%
  number of cells in 100 fields (unchanged cells): 8400
